The values below come from patent US11613775B2, “Measuring DNA polymerase fidelity” (Northwestern University, priority 2017, dated 2023).

For experiment [1] the following is noted: previously reported; cited from earlier work.
For experiment [2] the following is noted: previously reported; cited from earlier work. The source holds these as a separate data set.
For experiment [3], the system named is extension templates (TT, TA, TC, and TG). The experiment is described as follows: Nucleotide imbalance fidelity assay (rare base titration, NGS readout). The format is biochemical. An excerpt: Extension templates (TT, TA, TC, and TG) were designed for all four rare base contexts (Table 2). Templates were 100 bp in length and contained a single T, A, C, or G, or Error-Enriched Site (EES), near the middle of the template. Extension templates were designed to contain only three bases, with the exception of the EES (fourth base) and the extension primer-binding site. For each template type, the EES was flanked by 3 degenerate bases before the EES and 3 degenerate bases after the EES in order to create the following sequence context libraries: VVVTVVV, BBBABBB, DDDCDDD, and HHHGHHH (using IUPAC ambiguity codes). Because each of the 6 degenerate sites can be composed of 3 possible bases, each template library contained 729 (3^6) unique sequence contexts surrounding the EES. With the exception of the 6 bases flanking the EES, template sequences within a given library were identical. All templates contained a 3′ dideoxy-C modification to prevent extension from the template strand during a final PCR amplification step. Extension templates were purified via PAGE (Integrated DNA Technologies).
Individual annealing reactions were performed for each template type (TT, TA, TC, TG). Primer/template DNA was prepared by mixing PEXT with each template library in a 1:1.5 molar ratio (70 nM primer: 105 nM template) in a 1× reaction buffer specific to each DNA polymerase being tested (Table 1). The extension primer was annealed to template DNA by incubation at 95° C. for 2 minutes, followed by a −0.1° C./sec ramp until reaching 4° C.
Primer extension reactions were set up in duplicate for each condition being tested. Biological replicate reactions were performed in parallel, with the same annealed primer/template sample used for both replicates. For each DNA polymerase and rare base context of interest, 9 rare base concentrations were tested (log-fold dilutions from 10 μM-0.1 pM) while the concentration of the 3 non-rare bases was held constant at 10 μM (Bioline).
Primer extension reactions consisted of 1 μL of annealing reaction, 1× dNTP stocks ([…]+variable [dRTP]), variable DNA polymerase units, and 1×DNA polymerase reaction buffer in a 10 μL reaction. Extension reaction conditions for DNA polymerases tested are described in Table 1. Extension reactions were incubated for 1 hour and stored at −20° C. until purification. The Fluent Automated Liquid Handling Platform (Tecan) was used to set up all primer extension reactions.
The sample preparation pipeline for NGS was adapted from a previous protocol (Ref. 28; herein incorporated by reference in its entirety). Products from individual rare base extension reactions were column purified in 96-well plate format using the ZR-96 DNA Clean & Concentrator-5 (Deep well format) kit (Zymo Research). Purified DNA products were eluted in 10 μL of water and stored at −20° C. until ligation. Next, a 22 bp universal tag, common sequence 2 (CS2) of the Fluidigm Access Array Barcode Library for Illumina Sequencers (Fluidigm), synthesized as duplex DNA with a 5′ phosphate modification and PAGE purified (Integrated DNA Technologies, Table 2) was blunt-end ligated to the 3′ end of extended products. Ligation reactions were carried out in 10 μL volumes and consisted of 6 μL of purified product, 30 nM CS2 duplex DNA, 1× T4 DNA Ligase Reaction Buffer (New England Biolabs), and 2000 Units of T4 DNA Ligase (New England Biolabs). Ligation reactions were incubated at 16° C. for 16 hours. Ligated products were stored at −20° C. until PCR.
PCR was performed with barcoded primer sets from the Access Array Barcode Library for Illumina Sequencers (Fluidigm) to label extension products from up to 384 individual reactions. Each PCR primer set contained a unique barcode in the reverse primer. From 5′-3′, the forward PCR primer (PE1_CS1) contained a 25 base paired-end Illumina adapter 1 sequence followed by CS1. The binding target of the forward PCR primer was the reverse complement of the CS1 tag built into PEXT. […]

The conditions of experiment [4]: previously reported; cited from earlier work. This is another data set of the same source.
The conditions of experiment [5]: previously reported; cited from earlier work. This is another data set of the same source.
For experiment [6] the following is noted: previously reported; cited from earlier work. The source holds these as a separate data set.
For experiment [7] the following is noted: previously reported; cited from earlier work. This is another data set of the same source.
For experiment [8], the system named is lacZ template. As to conditions: cited from earlier work.
Setting [9] is: "C" template context, lowest [dRTP] tested (10^−7 μM).
Setting [10] is: All Four Contexts, fit of duplicate data from all four template contexts (n = 8), average FC50.
Setting [11] is: BBBABBB template context, n = 2.
Setting [12] is: DDDCDDD template context, n = 2.
[13] abbreviates: HHHGHHH template context, n = 2.
The mark [14] stands for this setting: VVVTVVV template context, n = 2.

Where two headings read alike, the source gives them in different places.

With “Phi29: high fidelity polymerase with proofreading ability (New England Biolabs)”, the “Error Rate” value in experiment [1] is reported as 0.0000095 errors/bp; in experiment [2], 0.000003 errors/bp. In addition, the preferred error type result in experiment [3] (setting [9]) is “C:dTTP”; in experiment [3] (DDDCDDD context, −1 G) it was “C:dATP”; in experiment [3] (DDDCDDD context, −1 T) it was “C:dTTP”. In addition, the FC50 was 0.000861 µM in experiment [3] (setting [10]); 0.000877 µM in experiment [3] (setting [11]); 0.00125 µM in experiment [3] (setting [12]); 0.00139 µM in experiment [3] (setting [13]); 0.000475 µM in experiment [3] (setting [14]). Also, in experiment [3] (average FC50 converted with Equation 9), the “estimated (FC50-derived) error rate versus mean of the two reported literature error rates” value is listed as 2.7 fold.
In the case of “Taq: widely used commercial DNA polymerase (New England Biolabs)”, the “Error Rate” value in experiment [4] is on record as 0.00021 errors/bp; in experiment [5] it was 0.00011 subs/bp; in experiment [6] it was 0.00018 errors/bp; in experiment [7], 0.0002 subs/bp. Besides, the preferred error type result in experiment [3] ("A" template context, lowest [dRTP] tested (10^−7 μM)) is “A:dATP”; in experiment [3] (setting [9]), “C:dATP”; in experiment [3] ("G" template context, lowest [dRTP] tested (10^−7 μM)), “G:dTTP”. The FC50 in experiment [3] (setting [10]) turned out to be 0.00267 µM; in experiment [3] (setting [11]) it was 0.00261 µM; in experiment [3] (setting [12]) it was 0.00215 µM; in experiment [3] (setting [13]), 0.00208 µM; in experiment [3] (setting [14]), 0.00405 µM.

B1: Sulfolobus solfataricus Dpo4: a close homologue of S. islandicus Dpo4, literature data (protein, UniProt Q97W02 1-352, looked up)
DNA polymerase IV: MIVLFVDFDYFYAQVEEVLNPSLKGKPVVVCVFSGRFEDSGAVATANYEARKFGVKAGIPIVEAKKILPNAVYLPMRKEVYQQVSSRIMNLLREYSEKIEIASIDEAYLDISDKVRDYREAYNLGLEIKNKILEKEKITVTVGISKNKVFAKIAADMAKPNGIKVIDDEEVKRLIRELDIADVPGIGNITAEKLKKLGINKLVDTLSIEFDKLKGMIGEAKAKYLISLARDEYNEPIRTRVRKSIGRIVTMKRNSRNLEEIKPYLFRAIEESYYKLDKRIPKAIHVVAVTEDLDIVSRGRTFPHGISKETAYSESVKLLQKILEEDERKIRRIGVRFSKFIEAIGLDKFFDT
For B1, the error preferences entry in experiment [8] (at A sites) is listed as “A:dATP>A:dCTP>A:dGTP”; in experiment [8] (at C sites) it was “C:dCTP>C:dATP=C:dTTP”; in experiment [8] (at G sites) it was “G:dTTP>G:dGTP>G:dATP”; in experiment [8] (at T sites), “T:dGTP>T:dCTP T:dTTP”.
